Measured values from patent publication US20240025862A1, “SUBSTITUTED N-PHENYLURACILS AND SALTS THEREOF, AND USE THEREOF AS HERBICIDAL ACTIVE SUBSTANCES” (Bayer Aktiengesellschaft, priority 2020, published 2024).

Experiments:
Type in all cases: in vivo
[1] = test system: Triticum aestivum (TRZAS); test: Post-emergence crop plant compatibility, greenhouse pot test; details: vs untreated controls
Outline: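 Visual % damage vs untreated controls, scored ~3 weeks post-spray (100% = dead, 0% = as control). Plants in sandy loam, greenhouse; treated at one-leaf stage, 2–3 wk after sowing. WP/EC, aqueous, 0.5% additive, 600 l/ha. Suffixes a/b/c = different dosages.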

[2] = test system: Avena fatua (AVEFA); test: Post-emergence herbicidal action, greenhouse pot test; details: 20 g/ha, rated visually after about 3 weeks vs untreated controls, 100% = plants have died
Outline: (§1)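 Activity was scored by eye about 3 weeks after treatment against untreated plants, where 100% means dead plants and 0% means no difference. Plants at the one-leaf stage received a foliar spray of WP or EC formulations in water plus 0.5% additive (600 l/ha, up to 20 g/ha). Plants were grown in sandy loam pots in a greenhouse for 2–3 weeks before spraying.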

[3] = test system: Abutilon theophrasti (ABUTH); test: as above; details: rated visually after about 3 weeks vs untreated controls, 100% = plants have died
Outline: as §1

[4] = test system: Veronica persica (VERPE); test: as above
Outline: as §1

[5] = test system: Polygonum convolvulus (POLCO); test: as above
Outline: as §1

[6] = test system: Amaranthus retroflexus (AMARE); test: as above; details: rated visually after about 3 weeks vs untreated controls, 100% = plants have died
Outline: as §1

[7] = test system: Viola tricolor (VIOTR); test: as above
Outline: as §1

[8] = test system: Pharbitis purpurea (PHBPU); test: as above
Outline: as §1

[9] = test system: Oryza sativa (ORYSA); test: Post-emergence crop plant compatibility, greenhouse pot test (also comparative test C); details: for Post-emergence action against ORYSA (crop plant compatibility): vs untreated controls; for Post-emergence action against ORYSA in %: 20 g/ha, crop plant compatibility
Outline: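 Visual damage versus untreated plants (0% = like control, 100% = plants died) was scored about 3 weeks after a post-emergence spray in greenhouse pots. Treatment: one-leaf stage, WP or EC in water at 600 l/ha with 0.5% additive; a/b/c mark different dosages on the same crop.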

[10] = test system: Matricaria inodora (MATIN); test: Post-emergence herbicidal action, greenhouse pot test (also comparative test C)
Outline: (§2)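 Visual rating against untreated controls, about 3 weeks after spraying, from 0% (like control) to 100% (plants dead). Weeds were treated at the one-leaf stage, 2–3 weeks after sowing in sandy loam, with aqueous WP/EC spray containing 0.5% additive at 600 l/ha. Doses were ≤20 g/ha, or ≤5 g/ha for comparative test C.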

[11] = test system: Echinochloa crus-galli (ECHCG); test: as above
Outline: as §2

[12] = test system: Alopecurus myosuroides (ALOMY); test: as above; details: rated visually after about 3 weeks vs untreated controls, 100% = plants have died
Outline: as §2

[13] = test system: Setaria viridis (SETVI); test: as above; details: for Post-emergence action against SETVI: 20 g/ha
Outline: as §2

Row | Structure (SMILES) | Post-emergence action against TRZAS (crop plant compatibility) ([1]; 1.25 g/ha) [%] | Post-emergence action at 20 g/ha against AVEFA in % [2] [%] | Post-emergence action at 5 g/ha against ABUTH in % [3] [%] | Post-emergence action at 20 g/ha against ABUTH in % [3] [%] | Post-emergence action against VERPE ([4]; 5 g/ha) [%] | Post-emergence action against VERPE ([4]; 20 g/ha) [%] | Post-emergence action against POLCO in % ([5]; dosage 5 g/ha) [%] | Post-emergence action against POLCO in % ([5]; dosage 20 g/ha) [%] | Post-emergence action at 1.25 g/ha against AMARE in % [6] [%] | Post-emergence action at 5 g/ha against AMARE in % [6] [%] | Post-emergence action at 20 g/ha against AMARE in % [6] [%] | Post-emergence action against VIOTR ([7]; 1.25 g/ha) [%] | Post-emergence action against VIOTR ([7]; 5 g/ha) [%] | Post-emergence action against VIOTR ([7]; 20 g/ha) [%] | Post-emergence action against PHBPU in % ([8]; dosage 5 g/ha) [%] | Post-emergence action against PHBPU in % ([8]; dosage 20 g/ha) [%] | Post-emergence action against ORYSA (crop plant compatibility) ([9]; 1.25 g/ha) [%] | Post-emergence action against MATIN in % ([10]; dosage 5 g/ha) [%] | Post-emergence action against MATIN in % ([10]; dosage 20 g/ha) [%] | Post-emergence action against ECHCG in % ([11]; dosage 5 g/ha) [%] | also measured
1 | COCCOCCOC(=O)COc1ccccc1Oc1cc(-n2c(=O)cc(C(F)(F)F)n(C)c2=O)c(F)cc1Br [I.8-23] | 10 | 80 | 100 | 100 | 100 | 100 | 100 | 100 | 100 | 100 | 100 | 100 | 100 | 100 | 100 | 100 | 0 | 100 | 100 | 100 | Post-emergence action against TRZAS (crop plant compatibility) ([1]; 5 g/ha): 20%; Post-emergence action at 1.25 g/ha against ABUTH in % [3]: 100%; Post-emergence action against VERPE ([4]; 1.25 g/ha): 80%; Post-emergence action against PHBPU in % ([8]; dosage 1.25 g/ha): 100%; Post-emergence action against ORYSA (crop plant compatibility) ([9]; 5 g/ha): 0%; Post-emergence action against ORYSA in % [9]: 20%; Post-emergence action against ECHCG in % ([11]; dosage 20 g/ha): 100%; Post-emergence action at 5 g/ha against ALOMY in % [12]: 80%; Post-emergence action at 20 g/ha against ALOMY in % [12]: 100%; Post-emergence action against SETVI [13]: 100%; Post-emergence action against SETVI in % ([13]; dosage 1.25 g/ha): 100%; Post-emergence action against SETVI in % ([13]; dosage 5 g/ha): 100%
2 | CCOCCOC(=O)COc1ccccc1Oc1cc(-n2c(=O)cc(C(F)(F)F)n(C)c2=O)c(F)cc1C#N [I.9-2] | 20 | 90 | 100 | 100 | 100 | 100 | 100 | 100 | 100 | 100 | 100 | 100 | 100 | 100 | 100 | 100 | 0 | 100 | 100 | 100 | Post-emergence action at 1.25 g/ha against ABUTH in % [3]: 100%; Post-emergence action against VERPE ([4]; 1.25 g/ha): 100%; Post-emergence action against PHBPU in % ([8]; dosage 1.25 g/ha): 100%; Post-emergence action at 1.25 g/ha against ECHCG in % ([11]; 1.25 g/ha, rated visually after about 3 weeks vs untreated controls, 100% = plants have died): 80%; Post-emergence action against ECHCG in % ([11]; dosage 20 g/ha): 100%; Post-emergence action at 5 g/ha against ALOMY in % [12]: 80%; Post-emergence action at 20 g/ha against ALOMY in % [12]: 100%; Post-emergence action against SETVI [13]: 100%; Post-emergence action against SETVI in % ([13]; dosage 1.25 g/ha): 100%; Post-emergence action against SETVI in % ([13]; dosage 5 g/ha): 100%
3 | Cn1c(C(F)(F)F)cc(=O)n(-c2cc(Oc3ccccc3OCC(=O)OCC[N+](=O)[O-])c(Br)cc2F)c1=O [I.8-183] | 0 | 100 | 100 | 100 | 100 | 100 | 100 | 100 | 100 | 100 | 100 | 100 | 100 | 100 | 100 | 100 | 0 | 80 | 100 | 100 | Post-emergence action against TRZAS (crop plant compatibility) ([1]; 5 g/ha): 20%; Post-emergence action against ORYSA (crop plant compatibility) ([9]; 5 g/ha): 0%; Post-emergence action against ORYSA in % [9]: 0%; Post-emergence action against ECHCG in % ([11]; dosage 20 g/ha): 100%; Post-emergence action at 5 g/ha against ALOMY in % [12]: 80%; Post-emergence action at 20 g/ha against ALOMY in % [12]: 100%; Post-emergence action against SETVI [13]: 100%; Post-emergence action against SETVI in % ([13]; dosage 1.25 g/ha): 100%; Post-emergence action against SETVI in % ([13]; dosage 5 g/ha): 100%
